Consider four compounds from US20090263852A1, “NONAPOPTOTIC FORMS OF CELL DEATH AND METHODS OF MODULATION” (priority 2000, published 2009).

The subject of assay [1] is IGFIR-IC transfected 293T cells. In words: IGFIR-IC-induced cell death (paraptosis) in transfected 293T cells, trypan blue exclusion. The conditions noted are these: for IGFIR-induced cell death following drug treatment: drug added 8.5 hrs after transfection, removed after 12 hrs, floating dead cells counted 24 hrs later with trypan blue. Also noted: inhibition of IGFIR-IC-induced cell death: dose or concentration left out as unconfirmed. It is filed as cell-based. As for the experimental part: Transient transfections used Lipofect-Amine (GIBCO, BRL, Rockville, Md.) according to the manufacturer's instructions. Briefly, 1×10^6 293T cells were seeded in 6 cm dishes, and transfected the next day using a ratio of DNA:Lipofect-Amine of 1 μg:5 μl.
Following expression of the IGIFR-IC constructs, the cell cultures were assayed for cell death. Cell death was assessed by trypan blue exclusion. Floating cells were collected at the indicated times after transfection, by centrifugation for 10 minutes at 1500 rpm. The cell pellet was subsequently resuspended in 50 μl of PBS, to which 50 μl of trypan blue was added. Dead cells were counted by 4 independent hemocytometer counts.
Briefly, caspase inhibitor BAF was added to pIGFIR-IC transfected 293T cells at a concentration of […]. In addition, 293T cells were cotransfected with […] of pIGFIR-IC and […] of either pcDNA3 or pxiap or pBcl-xL. […] BAF and zVAD.fmk were obtained from Enzyme System Products (Livermore, Calif.).
To assess IGFIR-induced cell death following treatment with Actinomycin D and cycloheximide, both drugs were obtained form Sigma and added to IGFIR-IC transfected 293T cells. Briefly, 293T cells were transfected as described above and 8.5 hours after the beginning of transfection the drugs were added at the indicated concentrations. The drugs were subsequently removed after 12 hours and the cells were fed with fresh medium. Floating cells were collected 24 hrs after the removal of the drugs and dead cells were counted in the presence of trypan blue.
To assess whether caspase-9 has a functional role in IGFIR-induced cell death 293T cells were transfected with 2 μg of DNA consisting of either pcDNA3, 0.5 μg pIGFIR-IC+1.5 μg pcDNA3 (Invitrogen, Carlsbad, Calif.), or 0.5 μg pIGFIR-IC+1.5 μg dominant negative caspase-9 (pC9DN) or dominant negative caspase-7 (pC7DN) expression constructs. 48 hours after transfection, dead cells were counted.

Another assay has as its system Apoptosis. To be noted: Table 1, Comparison of Apoptosis, Necrosis and Paraptosis; cited from earlier work.
Assay [2] has as its system 293T cells transfected with caspase-7 zymogen expression construct. The assay can be described thus: caspase-7 induced cell death in transfected 293T cells. It counts as cell-based. To be noted: 50 μM final concentration, 48 hours after transfection. The method, then:
(§1) In panel (A) 293T cells were transfected with the indicated pcDNA3-based caspase zymogen expression constructs. The general caspase inhibitor BAF was added at 50 μM final concentration. Cell death was assayed 48 hours after transfection. […] Asterisks indicate a highly significant difference from the control as determined by one-way ANOVA analysis (F=34.624, P<0.0001), P<0.0001 for pC9, P=0.0002 for pC7, and P=0.0001 for pC9+BAF (Bonferroni/Dunn post-hoc test). Error bars represent the SEM from three independent experiments. […] Cells were photographed 24 hours after transfection. […] BAF. […] Cells were stained as described in FIG. 2C. Panel (E) Electron micrograph of 293T cells transfected with an expression construct for pro-caspase-9 in the presence of. zVAD.fmk (40 μM). Morphology similar to IGFIR-IC-induced cell death was observed, including cytoplasmic vacuolation and the absence of chromatin condensation, nuclear fragmentation, and apoptotic body formation. Original magnification: 6000×.
(§2) Following expression of the IGIFR-IC constructs, the cell cultures were assayed for cell death. Cell death was assessed by trypan blue exclusion. Floating cells were collected at the indicated times after transfection, by centrifugation for 10 minutes at 1500 rpm. […] Dead cells were counted by 4 independent hemocytometer counts. […]

Assay [3] has as its system 293T cells transfected with pro-caspase-9 (pC9). The assay can be described thus: caspase-9 induced cell death in transfected 293T cells. It counts as cell-based. The method, then:
as §1, §2

Assay [4] has as its system 293T cells transfected with pro-caspase expression constructs. The assay can be described thus: Internucleosomal DNA fragmentation of 293T cells transfected with pro-caspase expression constructs. It counts as cell-based. The conditions noted are these: 50 μM BAF. The method, then: as §1
Since one of the defining features of apoptotic cell death is the fragmentation of chromatin, genome integrity was assayed by agarose gel electrophoresis. Oligonucleosomal DNA fragmentation was assessed by extraction of soluble DNA from 3×10^6 transfected cells as by Frisch and Francis, Journal of Cell Biology 124:619-626 (1994), which is incorporated herein by reference.

Starred links: 1 amine or outer side, 2 acyl side, 3 side chain; linkers in the order of their positions; H or OH if unused. Positions of bridges follow the written chain, without caps; N, C: chain ends. Non-standard residues stand in square brackets, D forms with d. Residues, ends and D or L forms follow the SMILES beside them. Chains are numbered I, II in the order given. Actinocin(9to1) = Cc1c2oc3c(C)ccc(C(=O)[*:1])c3nc-2c(C(=O)[*:2])c(N)c1=O; NMeV = CN[C@H](C(=O)O)C(C)C; Sar = CNCC(=O)O

For the compound `C[C@@H]1C[C@@H]([C@H](O)CC2CC(=O)NC(=O)C2)C(=O)[C@@H](C)C1` [Cycloheximide, cycloheximide], the “Inhibition by: Paraptosis” value in assay [1] (Table 1, 293T cell death induced by IGFIR-IC) is listed as 0. Also, in assay [1], the “IGFIR-induced cell death following drug treatment” value is “dose-dependent block”. Also, in the assay on Apoptosis, the “Inhibition by: Apoptosis” value is reported as “Sometimes”.

On to `CC[C@H]1/C=C/C=C/C[C@@H](C)[C@H](O)[C@@](C)(O)C(=O)[C@@H](C)[C@H](O)[C@@H](C)C(=O)[C@@H](C)[C@H](O)[C@@H](C)/C=C/C(=O)O[C@@H]2[C@H](C)[C@H](CC1)O[C@]1(CC[C@H](C)[C@H](C[C@@H](C)O)O1)[C@H]2C` [oligomycin], for which, in assay [1] (100 ng/ml), the “block of IGFIR-induced cell death phenotype” value is reported as “blocked the phenotype”.

Regarding `COC(=O)C[C@H](NC(=O)OC(C)(C)C)C(=O)CF` [BAF, t-butyloxycarbonyl-Asp (O-methyl)-fluoromethyl ketone], the “inhibition of IGFIR-IC-induced cell death” value in assay [1] (293T cells) is listed as “Neither the administration of the caspase inhibitor BAF at 50 mM (A) nor the cotransfection of xiap (B) or Bcl-xL (C) were effective”. Also, the “inhibition of caspase-7 induced cell death” value in assay [2] was “completely”. Moreover, the “morphology of pro-caspase-9 transfected cells, light microscopy” value in assay [3] (50 μM BAF, 24 hours after transfection) is “suppressed the apoptotic phenotype”. The “inhibition of caspase-9 induced cell death” value in assay [3] (50 μM final concentration, 48 hours after transfection) came out at 30%. In addition, in assay [4], the “Internucleosomal DNA fragmentation” value is given as “completely inhibited”.

As to `Cc1c2oc3c(C)ccc(C(=O)N[C@@H]4C(=O)N[C@H](C(C)C)C(=O)N5CCC[C@H]5C(=O)N(C)CC(=O)N(C)[C@@H](C(C)C)C(=O)O[C@@H]4C)c3nc-2c(C(=O)N[C@@H]2C(=O)N[C@H](C(C)C)C(=O)N3CCC[C@H]3C(=O)N(C)CC(=O)N(C)[C@@H](C(C)C)C(=O)O[C@@H]2C)c(N)c1=O` [Actinomycin D] (I: T[dV]P[Sar][NMeV] / II: T[dV]P[Sar][NMeV]; ester I:1-I:C, II:1-II:C; linker I:N-II:N via Actinocin(9to1)), in assay [1], the “IGFIR-induced cell death following drug treatment” value is “restored cell viability to control levels”. Further, the “Inhibition by: Apoptosis” value in the assay on Apoptosis is reported as “Sometimes”.
